Values quoted from earlier work, collected in patent US20240197637A1, “POLYMERIC MICROPARTICLES FOR THE LOCAL TREATMENT OF CHRONIC INFLAMMATORY DISEASES” (FONDAZIONE ISTITUTO ITALIANO DI TECNOLOGIA, priority 2021, published 2024).

Test system: DMM murine model of injury-induced OA

Cc1ccc2c(c1)C1(CCN(CCc3nc(-c4ccccc4)oc3C)CC1)OC(=O)N2 [RS 504393]
pain perception (orally and daily administered): decreased
severity of structural damage (orally and daily administered, early OA stage): decreased the severity of structural damage
cartilage and bone damage (prolonged and delayed exposure): did not translate in a significant reduction
pain (prolonged and delayed exposure): alleviating pain
